According to ChEMBL document CHEMBL4706474, “Tetrahydro-2-naphthyl and 2-Indanyl Triazolopyrimidines Targeting Plasmodium falciparum Dihydroorotate Dehydrogenase Display Potent and Selective Antimalarial Activity” (J Med Chem, 2016):

How the values were obtained:
Type in all cases: ADME, organism-based
[1] = Unbound AUC (0 to infinity) in Sprague-Dawley rat at […], iv by LC-MS analysis; settings: in vivo, dose 1.6 mg/kg
[2] = Protein binding in Sprague-Dawley rat plasma at […], iv administered as infusion for 10 mins by LC-MS analysis; settings: dose 1.6 mg/kg, read-out: PPB (converted)
[3] = Oral bioavailability in Sprague-Dawley rat at 21.3 mg/kg measured over 24 hrs by LC-MS analysis; settings: in vivo

Row | Compound | fAUC [1] [µM·h] | fraction unbound at 10 min [2] | bioavailability [3] [%]
1 | Cc1cc(N[C@H]2CCc3ccc(Cl)cc3C2)n2nc(C(C)(F)F)nc2n1 | 0.12 | 0.035 | 
2 | Cc1cc(NC2Cc3cc(F)c(F)cc3C2)n2nc(C(C)(F)F)nc2n1 |  |  | 63
